Molecular target: High affinity nerve growth factor receptor (Homo sapiens, UniProt P04629)
Assay: Functional Activity Assay: TrkA functional activity was measured using a DiscoverX PathHunter assay. In this assay, U2OS cells express the human TrkA receptor as a fusion with the weakly complementing fragment of B-galactosidase, which DiscoverX calls “Prolink (PK)”; additionally, Shcl is fused with a larger fragment, which is called “Enzyme Acceptor (EA)”. Activation of the TrkA receptor, upon NGF addition, results in the kinase domain being phosphorylated, resulting in subsequent recruitment of Shcl-EA protein. That recruitment results in an active B-galactosidase enzyme that is detected by addition of a chemiluminescent substrate. The human p75NTR protein was also expressed as a co-receptor for NGF.All reagents were purchased from DiscoverX, except for the receptor agonists (NGF, BDNF, NT3) which were purchased from Peprotech. Cells were expanded and frozen into cryovials, and stored in the vapor phase of liquid nitrogen, and thawed immediately before use. Thawed cells were added to a 384-well plate at 7500 cells/well, and allowed to incubate overnight. Compound at various concentrations was added the following morning and allowed to incubate on cells for 1 h. Then, NGF was added at a concentration sufficient to elicit ˜80% of a maximal response and allowed to incubate for 3 h at ambient temperature.

Chain of High affinity nerve growth factor receptor (P04629 whole entry, the tested form may be a part): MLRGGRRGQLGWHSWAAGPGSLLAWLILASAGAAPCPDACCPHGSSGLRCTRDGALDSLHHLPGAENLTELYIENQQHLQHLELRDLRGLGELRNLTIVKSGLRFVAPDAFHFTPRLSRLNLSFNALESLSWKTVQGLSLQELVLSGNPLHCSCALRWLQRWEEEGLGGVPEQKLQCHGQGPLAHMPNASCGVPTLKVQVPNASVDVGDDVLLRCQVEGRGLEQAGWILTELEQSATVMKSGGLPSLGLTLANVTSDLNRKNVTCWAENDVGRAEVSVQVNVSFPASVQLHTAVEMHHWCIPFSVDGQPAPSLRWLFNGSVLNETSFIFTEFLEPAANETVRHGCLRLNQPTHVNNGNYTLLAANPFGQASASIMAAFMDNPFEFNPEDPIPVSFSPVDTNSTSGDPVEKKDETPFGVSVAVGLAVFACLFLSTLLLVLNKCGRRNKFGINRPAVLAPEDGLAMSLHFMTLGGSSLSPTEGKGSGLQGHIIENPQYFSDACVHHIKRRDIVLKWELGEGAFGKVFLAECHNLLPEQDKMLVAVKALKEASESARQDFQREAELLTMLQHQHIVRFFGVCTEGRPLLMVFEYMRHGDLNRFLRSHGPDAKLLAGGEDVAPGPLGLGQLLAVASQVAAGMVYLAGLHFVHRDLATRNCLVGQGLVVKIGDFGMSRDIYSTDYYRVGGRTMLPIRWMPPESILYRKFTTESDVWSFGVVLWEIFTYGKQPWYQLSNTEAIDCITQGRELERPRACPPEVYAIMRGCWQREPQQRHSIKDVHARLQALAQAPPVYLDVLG

SMILES: Cc1ncc(NC(=O)c2cc(-c3ccn(C)n3)c(C(F)(F)F)cc2F)c(-c2ccccc2)n1
- IC50: 1 nM
